From a melting point compilation (Tetko et al.; mined from patent text by program, amines drawn as free bases though some values may be those of a salt)

melting point [°C] | Compound
245 to 246 | O=C(CN1C(=O)C2(COc3cc4c(cc32)CCO4)c2c(Br)cccc21)Nc1ccccc1F (stereo not given)
203 to 204 | CC(C)c1csc(/C=C/c2cccc(NC(=O)Cc3ccccc3C(=O)O)c2)n1
238 to 240 | Cc1c(C(=O)Nc2ccc(N3CCC(N4CCOCC4)CC3)c(Cl)c2)cnn1-c1ccc(Cl)cc1
155 to 156 | COc1ccc(-n2cnc3ccc(-c4nnc(SCc5cccc(F)c5)o4)cc32)cc1
145 to 147 | Cc1nc(COc2cc(-n3c(=O)cc(C(F)(F)F)n(C)c3=O)c(F)cc2Cl)cs1
168 to 170 | Cc1noc(C)c1-c1cn(Cc2ccccc2)c(=O)c2ncccc12
250 to 252 | COc1ccc(C(=O)Nc2ccccc2)cc1NS(=O)(=O)c1cn(C)cn1
104 to 106 | COc1cc(COc2nn(-c3ccccc3)cc2/C=C/c2coc(C(C)(C)C)n2)ccc1OCc1nc(-c2ccc(CC(=O)O)cc2)oc1C
189 to 191 | O=CN(O)C(CCc1ccc(C(=O)O)cc1)CS(=O)(=O)c1ccc(Oc2ccc(OC(F)(F)F)cc2)cc1 (stereo not given)
104 | OCc1ccc(-c2nn(Cc3ccccc3)c3ncccc23)o1
82 to 84 | CC(=O)n1cc(Cl)c(-c2ccccc2Cl)c1
81 to 82 | O=C1c2ccccc2C(=O)N1CCCOc1ccncc1
112 | CN1CCC(CC(=O)N2c3ccccc3C(=O)Nc3cccc(Cl)c32)CC1
140 | CC(C)(C)OC(=O)Nc1cc(OCC2COC(=O)O2)c(C#Cc2ccccc2)cc1N (racemic)
> 285 | O=C(O)c1ccc2nc3ccc(C(=O)O)nn3c(=O)c2c1
219 to 223 | CC(=O)N(Cc1ccc(C(=O)O)cc1)c1ccc2c(c1)C(C)(C)CCC2(C)C
172 to 173 | CCCCN1CCn2c1nc(C(=O)NCc1ccc(F)cc1-n1cnc(C)n1)c(OCc1ccccc1)c2=O
263 to 267 | CCc1ccc(C(=O)C2=C(O)C(=O)N(c3ccc(C)nn3)C2c2ccc(OC(F)(F)F)cc2)cc1 (stereo not given)
146 to 149 | CCc1cc(C(=O)c2ccccc2Cl)c(-n2nnnc2CNC(=O)c2cc3ccccc3[nH]2)s1
89 to 90 | COc1cccc(C(C)NC(=O)CCc2cnoc2-c2ccc(Cl)cc2)c1 (stereo not given)
228 to 230 | O=C(c1cc(-c2cccc(Cl)c2)c(=O)n2c1-c1c(Cl)cccc1C2)N1CCC[C@@H]1CO
146 | O=C(C=Cc1cc([N+](=O)[O-])ccc1Cl)N1CCc2c([nH]c3ccccc23)C1c1ccc2c(c1)OCO2 (stereo not given)
149 to 150 | CSc1cc(CBr)cc(S(N)(=O)=O)c1Cc1ccccc1

melting point [°C] | Compound
152 to 153 | CCCCCNS(=O)(=O)NC(=O)/C(C)=C/c1ccc(OCCOC)cc1Oc1ncc(C(F)(F)F)cc1Cl
208 to 210 | C[C@@H](NC(=O)c1cnn(-c2ccc(C(F)(F)F)cc2)c1N)[C@](O)(Cn1cncn1)c1ccc(F)cc1F
174 to 177 | c1ccc(C(NC23CC4CC(C2)CC(OCc2ccc(-c5nc6ccccc6o5)cc2)(C4)C3)(c2ccccc2)c2ccccc2)cc1
117 to 119 | COc1ccc(C(=O)Cc2ccccc2)cc1OC1CCCC1
192 to 194 | CN(C)S(=O)(=O)c1cccc2c1Sc1ccc(OCc3ccccc3)cc1N2
218 to 219 | CN(C)C(=O)c1nc(-c2ccccc2)nc2[nH]c3ccccc3c12
146 to 149 | O=C(C=Cc1cc(O)c(O)cc1O)OCCc1ccccc1
222 to 223 | CC(=O)NC[C@H]1CN(c2ccc(-n3cc(-c4ccc(C)cc4)cn3)c(F)c2)C(=O)O1
223 to 224 | Cc1nc(C(O)COc2ccc(CC3SC(=O)NC3=O)cc2)c(C)o1 (stereo not given)
140 to 143 | Cc1cc(CC(=O)O)n(C)c1C(=O)c1ccc(Cl)cc1Cl
121 to 123 | O=C1C2Cc3cc4ccccc4n3CC2CN1Cc1ccccc1 (stereo not given)
130 to 131 | CC(=O)c1ccc(/C=C(\C)c2ccc3c(c2)C(C)(C)CC3(C)C)cc1
> 108 | CCCCc1nn2c(-c3ccccc3)c(C)nc2n1Cc1ccc(-c2ccccc2-c2nnn[nH]2)cc1
120 | Cc1cccc(COn2nnc3ccc(Cn4ccnc4)cc32)c1
92 to 95 | CCc1c(-c2ccc(OCc3ccccc3)cc2)c2c(C(=O)N(C)C)cc3cccc1n32
240 to 241 | COc1cc(CN/C=C2\C(=O)NC(=O)c3ccc(-c4ccc(Oc5ccccc5)cc4)cc32)cc(O)c1OC
> 260 | Cn1ncc(C(=O)O)c1C(=O)Nc1ccn2nc(-c3cccc(F)c3)nc2c1
215 to 217 | Cc1c(CC(C)(C)C(=O)O)n(Cc2ccc(Cl)cc2)c2ccc(OCc3ccc4ccccc4n3)cc12
165 to 167 | CC1=C(C(=O)OC(C)C)C(c2cccc(Cl)c2)N(C(=O)Oc2ccc([N+](=O)[O-])cc2)CN1 (stereo not given)
118 | CCCCCCCNC(=O)Nc1ccccc1C(=O)Nc1ccccn1
85.4 to 86.6 | CCN(c1ccc(C#N)cc1)S(=O)(=O)c1ccc(C)cc1
143 | CCOC(=O)NCC(O)c1cccc2c1CCN2C(=O)c1ccccc1 (stereo not given)

Further lines, the molecule ahead of its results:

Compound | melting point [°C]
CC(O)=C(C#N)C(=O)Nc1ccc(Br)cc1Br | 181
Cc1nc(OC(C)C)nc(C)c1N1CCCn2c1nc1c(Cl)ccc(C(OC(F)F)C(F)(F)F)c12 (stereo not given) | 227 to 230
C=CCn1cc(C(=O)OCC)c(=O)c2cc(F)c(Cl)cc21 | 162 to 164
CCCCn1c(=O)n(CCN2CCN(c3ccccc3OC)CC2)c(=O)c2sccc21 | 139 to 140
CC(=O)OC(=O)c1ccc(N2C(=O)NC(N(CC(C)C)C(C)=O)NC2=O)cc1 | 134 to 137
ClCc1coc(-c2ccsc2)n1 | 91 to 92
COc1cccc(C(=O)C=CC2=CCC(OC)(N(C)C)C=C2)c1OC (stereo not given) | 168 to 169
COc1nc(C)nc(NC(=N)SC)n1 | 112
CC(C)C(=O)N[C@@H](CSC(=O)c1ccccc1)C(=O)NCCSC(=O)C(C)(C)C | 123 to 124
Cc1cc(C)n(-c2nccc(Nc3cccc(C(F)(F)F)c3)n2)n1 | 98.5 to 99.6
CCSC1=NCC(=O)N1c1ccc(C)c(Cl)c1 | 133 to 135
CC(=O)Nc1cnc(C2OCCO2)cc1C | 98 to 99
O=C(OCCCCCCCCCCCCBr)C1CC1 | 29 to 31
CSC(=C[N+](=O)[O-])NCCSCc1ncccc1Br | 79 to 80
CNC(=O)c1ccc(C(=O)O)cc1N | 215 to 217
C[C@@H]1CNC(=O)c2cc3ccc(C(F)(F)F)cc3n21 | 201 to 204
O=C(c1cccnc1Cl)N(O)C1CCCCC1 | 151 to 153
C#CCC1(O)CCN(c2ccc(N3C[C@H](CNC(C)=O)OC3=O)cc2F)CC1 | 166 to 167
Cn1ncc(C2=CC(=O)CCC2)c1S(N)(=O)=O | 160 to 165
CC12CCC3C(CCC4CC=CCC43C)C1CC=C2Br (stereo not given) | 76 to 77
COC(=O)CCc1cc(C)on1 | 54 to 55
COc1ccc2sc(C(N)=O)c(SCCN3CCOCC3)c2c1 | 158 to 160
C[C@H](NC(=O)[C@@H](C)NC(=O)[C@@H](N)CC(=O)O)C1CCCC1 | 204 to 205
N#Cc1ccccc1Cn1cc(C(=O)C(=O)NC2=CC(=O)OC2)c2ccccc21 | 229 to 231
Cc1n[nH]c(C)c1-c1cccc(OC2SCC(O)C(O)C2O)c1 (stereo not given) | 213
NC(=O)c1ccnc(CCCCCCOCCCCCCBr)c1 | 73 to 75
CC(=O)c1ccc(NC(=O)N2CCC3(CC2)CN(S(N)(=O)=O)c2ccccc23)cc1 | 233 to 236
O=C(Nc1cscn1)C(F)(F)F | 138 to 139

Compound | melting point [°C]
CC(=O)OC1CSC(Oc2cccc(-c3ccccn3)c2)C(OC(C)=O)C1OC(C)=O (stereo not given) | 68 to 97
O=[N+]([O-])c1ccc(F)c(CO)c1 | 50 to 53
CC(C)C[C@H](N)C(=O)NCCCCNC(=O)OCc1ccccc1 | 137 to 139
Clc1nc2ncnn2c(NC2CCCC2)c1-c1ccsc1 | 78
COC(=O)C(C)NC(=O)C1CCCN1C(=O)OCc1ccccc1 (stereo not given) | 45 to 49
CCOC(=O)c1cc2c(F)c(Cl)ccc2[nH]1 | 143 to 145
COc1cc(-c2cccs2)cc(OC)c1C=O | 168 to 170
Cc1ccc2c(c1O)N=CC1CCCN1C2=O (stereo not given) | 148 to 150
CCc1nc(C2CC2)c[nH]1 | 104 to 106
CN=C=Nc1ccccc1N1CCOCC1 | 67 to 68
CCCC(O)c1cc2c(cc1C)OCO2 (stereo not given) | 65.5 to 66.5
CC1(C)OC2OC(CN3C(=O)C4(COc5cc6c(cc54)OCCO6)c4ccccc43)C3OC(C)(C)OC3C2O1 (stereo not given) | 112 to 118
CC1(C)Oc2ccc(C#N)cc2C2C1OC(=O)CN2c1ccccc1 (stereo not given) | 241 to 243
CCOC(=O)C(Br)C(=O)Nc1ccc(Cl)cc1 (stereo not given) | 117 to 119
COc1ccc2c(c1)Cc1nnc(S(C)=O)n1C=C2 (stereo not given) | 176 to 177
Cc1ccc(Oc2ccncc2N)cn1 | 74 to 79
CCOc1cc2c(cc1OC)C(c1ccc(C(=O)N(C(C)C)C(C)C)cc1)=N[C@@H]1CCOC[C@H]21 | 116 to 120
Cn1ncc(C(=O)N2CCOCC2)c1C(=O)Nc1ccn2nc(-c3cccc(F)c3)nc2c1 | 212 to 214
CCOc1ccc(Br)c(O)c1C(=O)NCC1CCCN1CC (stereo not given) | 74 to 76
Cn1c(C(F)(F)F)cc(=O)n(-c2cc(N)c(Cl)cc2F)c1=O | 132 to 135
CCCCCCCCS(=O)(=O)c1ccc(CC(COC(C)=O)(COC(C)=O)NC(C)=O)cc1 | 98 to 100
COC(=O)CCCCCCCCCCCCCCC=O | 41.5
N#Cc1cc(C#N)cc(Oc2c(C3CC3)nn(CCO)c2C2CC2)c1 | 115 to 117
CCC1CCCN(C(=O)C2Cc3ccccc3N2c2ccc(=O)n(C)n2)C1 (stereo not given) | 150 to 154
O=C(c1cocc1C(=O)N1CCCCC1)N1CCCCC1 | 180 to 183
CCCCCc1nc(-c2ccccc2)c(CCC(=O)O)o1 | 80 to 81
O=CNc1nc2c(s1)-c1nc(-c3ccccc3)ncc1CC2 | 304 to 306
